The values below come from patent US20190030009A1, “COMPOUNDS AND COMPOSITIONS FOR THE TREATMENT OF CRYPTOSPORIDIOSIS” (Novartis AG, priority 2016, published 2019).

A value given as a limit tells only on which side of the number the result lay.

This test concerns Cryptosporidium parvum. Description: Cytopathic effect (CPE) based assay, C. parvum infected HCT-8 cells. The settings on record: HCT-8 host cell viability (CellTiter-Glo), 48 hours treatment, read-out: Cp CPE EC50. On the procedure: Human ileocecal colorectal adenocarcinoma cells (HCT-8 [HRT-18] ATCC, CCL-34) were maintained in T-175 flasks (Corning, 431080) in complete growth medium (RPMI-1640 medium (Gibco, 11875) supplemented with 10% heat-inactivated horse serum (Gibco, 26050), 1×MEM non-essential amino acids (Gibco, 11140), 10 mM HEPES (Gibco, 15630), 100 units/mL penicillin, and 100 units/mL streptomycin) at 37° C. and 5% CO2 in a humidified incubator. Cultures were passaged twice weekly using 10 mL of 1×Phosphate-Buffered Saline (PBS) without Ca^2+ and Mg^2+ (Gibco, 20012) for washing and 3-5 mL per T-175 flask of TrypLE Express Enzyme (Gibco, 12604) for dissociation of adherent cells.
Cryptosporidium parvum oocysts purchased from the Sterling Laboratory, University of Arizona (Iowa isolate) were purified from infected calf feces using discontinuous sucrose and cesium chloride centrifugation gradients and stored in PBS solution containing 0.01% Tween 20, 100 units/mL penicillin and 100 units/mL gentamicin.
Excystation and infection protocols were developed following established methods with some modifications (Gut & Nelson, 1999, Upton et aL, 1995, Bessoff et aL, 2013). Briefly, oocysts were primed in 1 mL of 10 mM hydrochloric acid in 1× Hank's Balanced Salt Solution (HBSS) (Gibco, 14025) for 10 minutes with agitation at 1000 rpm, 37° C. on an Eppendorf thermomixer, then washed twice with 1 mL of room temperature non-acidic 1× HBSS by centrifugation at 13,000 rpm for 3 minutes at 25° C. Primed oocysts were further excysted at a concentration of 1×10^6 oocysts/μL in parasite infection medium consisting of a pre-warmed and pre-gassed 1:1 formulation of Leibovitz's L-15 medium (Gibco, 11415) and UltraCULTURE medium (Lonza, 12-725F) supplemented with 2 mM sodium taurocholate (Sigma, 86339-1), 10% heat-inactivated horse serum, and 200 μM L-ascorbic acid (Sigma, 95210) at 25° C. for 10 minutes. HCT-8 monolayer cells were infected with excysted cryptosporidium at a specified multiplicity of infection (MOI). All dilutions for subsequent assays were performed in parasite infection medium without sodium taurocholate. Pre-excysted oocysts were enumerated microscopically using a C-Chip disposable hemocytometer (NanoEnTek, DHC-N01).
Compound powders were dissolved in neat DMSO (Fisher, D4121) to 10 mM and stored at 4° C. prior to dilution into source plates. Dilutions were carried out using a Microlab STAR liquid handler (Hamilton) to obtain compound source plates containing the ten-point or eight-point three fold dilutions starting from 10 mM in duplicates. Source plates were stored at 4° C. prior to spotting into assay plates. Before administration, all compound source plates were equilibrated to room temperature. A specified volume of compounds from source plate were spotted to assay plate using an Echo Acoustic liquid handler (LABCYTE, 550) so that the final DMSO concentration was less than 0.5%. Each assay plate a specified number of DMSO-treated negative control wells and a well-studied potent active compound at 100 nM as positive control. As a quality control, all positive and negative-control wells were used to calculate a Z′-value and signal to noise ratio (S:N) for each plate.
Cryptosporidium spp are obligate-intracellular parasites that infect intestinal epithelial cells and the host cell is killed upon parasite egress. […] The loss of epithelial cells is due to both rapid parasite invasion/multiplication/egress and also pro-inflammatory immune response (Adams et al., 1994, Griffiths et al., 1994). We have observed a consistent cytopathic effect (CPE) in HCT-8 cells with C. spp infection the loss of viability of the host cells using CellTiter-Glo reagent.
Confluent HCT-8 cells in T-175 flasks were directly infected with excysted oocysts at an MOI (host to parasite) of 1:2 for C. parvum and 1:4 for C. hominis. The number of host-cells is determined using a NucleoCounter (Chemometec, NC-100) in a control flask. […]
For the molecule `CN(C(=O)c1ccn2ncc(-c3ccc(C(F)(F)F)cc3)c2c1)C1=CCC(C#N)C=C1` (centres unmarked) [Example 1], the EC50 amounted to 0.66 µM.
Then `CN(Cc1ccn2ncc(-c3ccc(C(F)(F)F)cc3)c2c1)c1ccc(F)cc1` [Example 2], with above 20 µM; and `CN(C(=O)c1ccn2ncc(-c3ccc(C(F)(F)F)cc3)c2c1)c1ccc(Cl)cc1` [Example 3], with 16.5 µM; and `CN(C(=O)c1ccn2ncc(-c3ccc(C(F)(F)F)cc3)c2c1)c1ccc(F)cc1` [Example 4], with 6.78 µM.
The value for `Cc1ccc(N(C)C(=O)c2ccn3ncc(-c4ccc(C(F)(F)F)cc4)c3c2)nc1` [Example 5] was above 20 µM; that for `Cc1ccc(N(C)Cc2ccn3ncc(-c4ccc(C(F)(F)F)cc4)c3c2)nc1` [Example 7] was above 20 µM; that for `CS(=O)(=O)c1ccc(N(CC2CCOCC2)C(=O)c2ccn3ncc(-c4ccc(C(F)(F)F)cc4)c3c2)cc1` [Example 12] was 12.6 µM.
Then `Cc1ccc(OCc2ccn3ncc(-c4ccc(C(F)(F)F)cc4)c3c2)nc1` [Example 15], with above 20 µM.
In the case of `Fc1ccc(CCc2ccn3ncc(-c4ccc(C(F)(F)F)cc4)c3c2)cc1` [Example 16], the concentration giving a half-maximal response (EC50) is above 20 µM.
Then `Fc1ccc(SCc2ccn3ncc(-c4ccc(C(F)(F)F)cc4)c3c2)cc1` [Example 21], with above 20 µM; and `[O-][S+](Cc1ccn2ncc(-c3ccc(C(F)(F)F)cc3)c2c1)c1ccc(F)cc1` (centres unmarked) [Example 22], with above 20 µM; and `CN(C(=O)c1ccn2ncc(-c3ccc(C(F)(F)F)cn3)c2c1)c1ccc(C#N)cc1` [Example 24], with above 20 µM.
Then `CN(C(=O)c1ccn2ncc(-c3ccc(C(F)(F)F)cn3)c2c1)c1ccc(C#N)cn1` [Example 25], with 2.3 µM; and `C[C@H](N)C(=O)Nc1ccc(-c2cnn3ccc(C(=O)N(C)c4ccc(C#N)cc4)cc23)cc1` [Example 26], with 0.142 µM.
With `CN(C(=O)c1ccc(F)cc1)c1ccn2ncc(-c3ccc(C(F)(F)F)cc3)c2c1` [Example 29], the EC50 is above 20 µM.
Turning to `CN(c1ccn2ncc(-c3ccc(C(F)(F)F)cc3)c2c1)S(=O)(=O)c1ccc(C#N)cc1` [Example 30], the EC50 was above 20 µM.
The value for `CN(c1ccn2ncc(-c3ccc(C(F)(F)F)cc3)c2c1)S(=O)(=O)c1ccc(F)cc1` [Example 31] was above 20 µM.
For the molecule `CN(C(=O)c1ccn2ncc(-c3ccc(C(F)(F)F)cc3)c2c1)c1ccc(C(F)(F)F)cn1` [Example 33], the EC50 was determined as 1.51 µM.
The value for `CN(C(=O)c1ccn2ncc(-c3ccc(C(F)(F)F)cc3)c2c1)c1ccc(S(C)(=O)=O)cn1` [Example 34] was 4.87 µM; that for `Fc1ccc(CNc2ccn3ncc(-c4ccc(C(F)(F)F)cc4)c3c2)cc1` [Example 35] was above 20 µM; that for `CN(Cc1ccc(F)cc1)c1ccn2ncc(-c3ccc(C(F)(F)F)cc3)c2c1` [Example 36] was above 20 µM.
Then `CN(C(=O)c1ccc(C(F)(F)F)nc1)c1ccn2ncc(-c3ccc(C(F)(F)F)cc3)c2c1` [Example 37], with 3.79 µM; and `CN(C(=O)c1ccc(C(F)(F)F)cn1)c1ccn2ncc(-c3ccc(C(F)(F)F)cc3)c2c1` [Example 38], with 4.71 µM.
In the case of `N#Cc1ccc(C(=O)N(CC2CCOCC2)c2ccn3ncc(-c4ccc(C(F)(F)F)cc4)c3c2)cc1` [Example 39], the EC50 is above 20 µM.
Take `CN(C(=O)c1ccn2ncc(-c3cnc4[nH]ccc4c3)c2c1)c1ccc(C#N)cc1` [Example 40]: the EC50 was determined as 0.074 µM.
The value for `CN(C(=O)c1ccn2ncc(-c3ccc(N)cc3)c2c1)c1ccc(C#N)cc1` [Example 42] was 0.142 µM; that for `CN(C(=O)Nc1ccc(F)cc1)c1ccn2ncc(-c3ccc(C(F)(F)F)cc3)c2c1` [Example 47] was above 20 µM.
For `CN(C(=O)c1ccc(C(C)(F)F)nc1)c1ccn2ncc(-c3ccc(C(F)(F)F)cc3)c2c1` [Example 48], the EC50 turned out to be 6.3 µM.
The value for `CN(C(=O)c1ccc(C2CC2)nc1)c1ccn2ncc(-c3ccc(C(F)(F)F)cc3)c2c1` [Example 49] was 19.2 µM.

The EC50 is the concentration needed to bring the measured effect to its halfway point.
